Experimental data: US12497394B2, “Fused-cyclic pyrazolone formamide compound and preparation method therefor, pharmaceutical composition and use thereof” (SHANGHAI INSTITUTE OF MATERIA MEDICA, CHINESE ACADEMY OF …, priority 2018, dated 2025)

Legend:
Type in all cases: biochemical
Details in all cases: 50 nM
[1] = target: RON/MSTIR (Homo sapiens, UniProt Q04912); assay: Kinase profile screen: RON/MSTIR
Excerpt: (§1) Experimental Example 2: Study on the Selectivity of the Kinase Profile of the Compound Due to compound's potent inhibitory activity against AXL, we selected one of the compounds, DC621044, to screen 369 kinase profiles in order to investigate the compound's selectivity to the kinase profile.

[2] = target: HIPK4 (Homo sapiens, UniProt Q8NE63); assay: Kinase profile screen: HIPK4
Excerpt: as §1

[3] = target: BLK (Homo sapiens, UniProt P51451); assay: Kinase profile screen: BLK
Excerpt: as §1

[4] = target: FLT3 (Homo sapiens, UniProt P36888); assay: Kinase profile screen: FLT3
Excerpt: as §1

[5] = target: TRKB (Homo sapiens, UniProt Q16620); assay: Kinase profile screen: TRKB
Excerpt: as §1

[6] = target: TYRO3/SKY (Homo sapiens, UniProt Q06418); assay: Kinase profile screen: TYRO3/SKY
Excerpt: as §1

[7] = target: PLK4/SAK (Homo sapiens, UniProt O00444); assay: Kinase profile screen: PLK4/SAK
Excerpt: as §1

[8] = target: DDR1 (Homo sapiens, UniProt Q08345); assay: Kinase profile screen: DDR1
Excerpt: as §1

[9] = target: c-MET (Homo sapiens, UniProt P08581); assay: Kinase profile screen: c-MET
Excerpt: as §1

[10] = target: EPHA6 (Homo sapiens, UniProt Q9UF33); assay: Kinase profile screen: EPHA6
Excerpt: as §1

[11] = target: ASK1/MAP3K5 (Homo sapiens, UniProt Q99683); assay: Kinase profile screen: ASK1/MAP3K5
Excerpt: as §1

Sequence of HIPK4 (Q8NE63 whole entry, species assumed): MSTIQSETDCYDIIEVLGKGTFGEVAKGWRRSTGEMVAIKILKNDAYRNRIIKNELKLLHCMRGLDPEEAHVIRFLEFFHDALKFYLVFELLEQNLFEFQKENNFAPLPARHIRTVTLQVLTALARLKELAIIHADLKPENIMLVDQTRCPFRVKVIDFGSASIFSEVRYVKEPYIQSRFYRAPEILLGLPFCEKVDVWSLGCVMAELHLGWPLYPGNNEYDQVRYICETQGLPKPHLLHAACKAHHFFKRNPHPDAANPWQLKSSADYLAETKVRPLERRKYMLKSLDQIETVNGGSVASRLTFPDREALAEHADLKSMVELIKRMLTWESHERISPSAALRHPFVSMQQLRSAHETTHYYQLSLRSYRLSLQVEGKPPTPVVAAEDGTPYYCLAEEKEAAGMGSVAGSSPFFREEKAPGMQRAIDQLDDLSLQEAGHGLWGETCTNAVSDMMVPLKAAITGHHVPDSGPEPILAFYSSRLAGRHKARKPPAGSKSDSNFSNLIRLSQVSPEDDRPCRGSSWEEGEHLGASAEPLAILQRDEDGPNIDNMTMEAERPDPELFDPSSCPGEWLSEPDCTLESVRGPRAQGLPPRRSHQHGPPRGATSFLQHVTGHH
Sequence of BLK (P51451 whole entry, species assumed): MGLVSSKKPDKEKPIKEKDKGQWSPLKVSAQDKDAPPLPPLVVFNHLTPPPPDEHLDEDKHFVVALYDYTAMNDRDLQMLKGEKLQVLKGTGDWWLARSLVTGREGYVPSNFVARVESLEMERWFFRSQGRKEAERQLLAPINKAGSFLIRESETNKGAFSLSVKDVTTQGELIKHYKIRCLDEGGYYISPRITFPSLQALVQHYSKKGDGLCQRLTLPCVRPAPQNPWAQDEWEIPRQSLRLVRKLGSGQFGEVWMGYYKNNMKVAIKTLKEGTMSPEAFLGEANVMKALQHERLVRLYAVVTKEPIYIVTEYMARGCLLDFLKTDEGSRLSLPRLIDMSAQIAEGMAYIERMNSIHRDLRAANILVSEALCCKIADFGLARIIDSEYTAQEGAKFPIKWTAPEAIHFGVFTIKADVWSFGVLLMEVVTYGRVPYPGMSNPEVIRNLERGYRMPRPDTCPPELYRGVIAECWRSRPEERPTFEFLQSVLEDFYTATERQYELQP
Sequence of DDR1 (Q08345 19-913, species assumed): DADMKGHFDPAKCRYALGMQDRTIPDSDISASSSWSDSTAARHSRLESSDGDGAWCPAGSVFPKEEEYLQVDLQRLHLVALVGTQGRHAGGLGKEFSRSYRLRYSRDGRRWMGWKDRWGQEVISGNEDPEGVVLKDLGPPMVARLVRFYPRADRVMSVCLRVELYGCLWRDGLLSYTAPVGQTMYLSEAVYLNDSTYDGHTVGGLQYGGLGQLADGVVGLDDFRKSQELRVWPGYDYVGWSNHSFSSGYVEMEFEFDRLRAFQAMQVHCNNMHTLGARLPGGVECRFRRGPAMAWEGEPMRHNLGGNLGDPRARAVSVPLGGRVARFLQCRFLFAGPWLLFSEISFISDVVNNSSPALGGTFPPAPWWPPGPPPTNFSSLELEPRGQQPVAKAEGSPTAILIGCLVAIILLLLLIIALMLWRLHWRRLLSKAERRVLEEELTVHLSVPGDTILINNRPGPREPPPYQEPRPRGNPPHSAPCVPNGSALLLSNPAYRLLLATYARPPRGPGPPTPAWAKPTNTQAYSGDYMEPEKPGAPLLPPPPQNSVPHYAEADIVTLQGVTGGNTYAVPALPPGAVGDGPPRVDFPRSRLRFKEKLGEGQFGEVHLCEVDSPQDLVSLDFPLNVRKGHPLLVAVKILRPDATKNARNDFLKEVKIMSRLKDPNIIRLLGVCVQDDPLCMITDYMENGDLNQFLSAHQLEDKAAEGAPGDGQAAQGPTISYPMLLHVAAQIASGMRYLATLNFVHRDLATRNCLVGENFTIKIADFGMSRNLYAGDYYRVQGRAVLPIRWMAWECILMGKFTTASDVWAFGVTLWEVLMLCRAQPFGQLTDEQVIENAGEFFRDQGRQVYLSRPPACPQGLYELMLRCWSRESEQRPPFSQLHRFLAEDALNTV
Sequence of TYRO3/SKY (Q06418 41-890): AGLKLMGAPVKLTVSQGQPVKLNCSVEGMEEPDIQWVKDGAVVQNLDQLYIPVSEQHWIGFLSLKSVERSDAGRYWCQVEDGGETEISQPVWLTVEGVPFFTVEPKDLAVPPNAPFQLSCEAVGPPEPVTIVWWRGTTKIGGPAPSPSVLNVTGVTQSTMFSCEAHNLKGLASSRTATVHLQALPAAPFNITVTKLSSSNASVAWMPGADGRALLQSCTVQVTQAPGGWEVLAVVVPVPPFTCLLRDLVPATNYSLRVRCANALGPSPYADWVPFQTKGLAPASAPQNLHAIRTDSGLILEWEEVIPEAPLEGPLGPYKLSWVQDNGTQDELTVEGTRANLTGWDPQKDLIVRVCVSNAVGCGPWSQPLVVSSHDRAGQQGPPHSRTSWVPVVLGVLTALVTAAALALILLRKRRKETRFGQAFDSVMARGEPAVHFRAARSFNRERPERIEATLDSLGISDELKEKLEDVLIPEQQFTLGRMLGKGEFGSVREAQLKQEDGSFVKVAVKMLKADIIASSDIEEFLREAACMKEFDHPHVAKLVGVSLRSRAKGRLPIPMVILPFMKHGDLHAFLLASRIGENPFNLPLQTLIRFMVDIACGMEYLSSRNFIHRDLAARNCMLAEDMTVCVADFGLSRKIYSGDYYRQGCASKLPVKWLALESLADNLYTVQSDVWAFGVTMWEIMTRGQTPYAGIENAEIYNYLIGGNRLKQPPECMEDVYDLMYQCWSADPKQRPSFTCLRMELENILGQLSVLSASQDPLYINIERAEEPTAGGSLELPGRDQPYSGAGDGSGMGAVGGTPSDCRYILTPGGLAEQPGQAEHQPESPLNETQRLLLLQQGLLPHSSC
Sequence of PLK4/SAK (O00444 whole entry): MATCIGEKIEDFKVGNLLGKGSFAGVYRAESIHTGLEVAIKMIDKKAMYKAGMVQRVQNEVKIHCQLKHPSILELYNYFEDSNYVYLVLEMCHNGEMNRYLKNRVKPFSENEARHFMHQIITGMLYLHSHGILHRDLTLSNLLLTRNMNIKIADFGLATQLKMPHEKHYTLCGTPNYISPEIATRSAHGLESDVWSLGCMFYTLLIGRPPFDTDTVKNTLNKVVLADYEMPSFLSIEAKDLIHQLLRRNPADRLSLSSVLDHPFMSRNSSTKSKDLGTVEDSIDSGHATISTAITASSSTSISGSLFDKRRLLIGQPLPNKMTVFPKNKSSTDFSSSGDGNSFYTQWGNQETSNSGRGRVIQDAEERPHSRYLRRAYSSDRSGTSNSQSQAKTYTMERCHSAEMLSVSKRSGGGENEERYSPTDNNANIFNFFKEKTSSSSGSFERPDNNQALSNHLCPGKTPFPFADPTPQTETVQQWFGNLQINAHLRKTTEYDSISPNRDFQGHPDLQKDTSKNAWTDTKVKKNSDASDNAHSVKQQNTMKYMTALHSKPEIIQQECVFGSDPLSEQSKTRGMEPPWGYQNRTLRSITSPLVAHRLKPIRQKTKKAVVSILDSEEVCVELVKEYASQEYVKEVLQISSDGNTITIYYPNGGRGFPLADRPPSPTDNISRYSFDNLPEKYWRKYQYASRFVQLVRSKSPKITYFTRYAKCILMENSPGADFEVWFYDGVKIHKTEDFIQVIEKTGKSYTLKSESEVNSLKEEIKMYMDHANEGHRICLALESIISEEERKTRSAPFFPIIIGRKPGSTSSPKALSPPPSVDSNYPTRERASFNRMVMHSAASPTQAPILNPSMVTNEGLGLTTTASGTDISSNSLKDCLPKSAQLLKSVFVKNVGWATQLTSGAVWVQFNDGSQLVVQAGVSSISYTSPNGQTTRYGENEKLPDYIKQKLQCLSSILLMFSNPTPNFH
Sequence of TRKB (Q16620 32-822, species assumed): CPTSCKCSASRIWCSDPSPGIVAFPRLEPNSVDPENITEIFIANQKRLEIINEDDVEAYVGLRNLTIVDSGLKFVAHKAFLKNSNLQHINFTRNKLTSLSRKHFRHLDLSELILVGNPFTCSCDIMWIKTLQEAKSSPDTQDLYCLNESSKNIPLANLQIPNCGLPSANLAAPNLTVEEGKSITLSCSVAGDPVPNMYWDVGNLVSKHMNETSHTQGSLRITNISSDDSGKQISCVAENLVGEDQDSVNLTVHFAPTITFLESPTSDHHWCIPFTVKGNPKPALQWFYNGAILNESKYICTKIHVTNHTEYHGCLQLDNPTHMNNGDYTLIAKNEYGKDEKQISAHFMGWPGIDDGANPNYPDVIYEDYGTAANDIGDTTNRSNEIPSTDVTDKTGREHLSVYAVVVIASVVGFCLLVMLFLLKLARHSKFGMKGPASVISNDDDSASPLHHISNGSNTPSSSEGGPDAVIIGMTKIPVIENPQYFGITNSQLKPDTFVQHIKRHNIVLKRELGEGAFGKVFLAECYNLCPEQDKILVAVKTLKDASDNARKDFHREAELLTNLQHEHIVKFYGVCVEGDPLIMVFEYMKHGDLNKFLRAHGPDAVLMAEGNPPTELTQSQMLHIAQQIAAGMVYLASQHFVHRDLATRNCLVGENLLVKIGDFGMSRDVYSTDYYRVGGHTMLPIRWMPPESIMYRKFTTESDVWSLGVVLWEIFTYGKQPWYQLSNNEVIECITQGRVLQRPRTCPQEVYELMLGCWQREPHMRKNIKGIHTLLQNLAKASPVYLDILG

COCCOc1cc2ncnc(Oc3ccc(NC(=O)c4c5n(n(-c6ccc(F)cc6)c4=O)CCCC5)cc3F)c2cc1OCCOC [DC621044, N-(4-((6,7-bis(2-methoxyethoxy)quinazolin-4-yl)oxy)-3-fluorophenyl)-1-(4-fluorophenyl)-2-oxo-1,2,4,5,6,7-hexahydropyrazolo[1,5-a]pyridine-3-formamide]
inhibition at 0.05 µM ([1]; the first time): 25.9% | inhibition at 0.05 µM ([1]; the second time): 27.2% | inhibition at 0.05 µM ([2]; the first time): 77.2% | inhibition at 0.05 µM ([2]; the second time): 77.2% | inhibition at 0.05 µM ([3]; the first time): 29.5% | inhibition at 0.05 µM ([3]; the second time): 29.9% | inhibition at 0.05 µM ([4]; the first time): 28% | inhibition at 0.05 µM ([4]; the second time): 29.3% | inhibition at 0.05 µM ([5]; the first time): 52.1% | inhibition at 0.05 µM ([5]; the second time): 52.2% | inhibition at 0.05 µM ([6]; the first time): 41% | inhibition at 0.05 µM ([6]; the second time): 41.2% | inhibition at 0.05 µM ([7]; the first time): 27.2% | inhibition at 0.05 µM ([7]; the second time): 29.8% | inhibition at 0.05 µM ([8]; the first time): 64.1% | inhibition at 0.05 µM ([8]; the second time): 64.2% | inhibition at 0.05 µM ([9]; the first time): 98.6% | inhibition at 0.05 µM ([9]; the second time): 99% | inhibition at 0.05 µM ([10]; the first time): 57.3% | inhibition at 0.05 µM ([10]; the second time): 57.8% | inhibition at 0.05 µM ([11]; the first time): 22.5% | inhibition at 0.05 µM ([11]; the second time): 23.5%
